According to patent US10793526B2, “Hydantoin derivative compounds, methods of use and methods of treatment” (University of South Florida, priority 2016, dated 2020):
Like-named read-outs stand apart in the source and are kept apart here.

Assays:
[1] = tested on: MRSA-induced lung inflammation; assay: Rat model of MRSA-induced pneumonia, pathological analysis (H&E); format: in vivo; conditions: 10 mg/kg i.v.
Method: The rat model of MRSA-induced pneumonia.^4, 5
The protocol of animal studies was approved by the institutional committee for animal care of Nanjing University, and the experiments were conducted following the regulation of the National Ministry of Health of China. In Brief, male Wistar rats (6-8 weeks, ˜200 g in average weight) were subjected to fast for 12 h. Next, rats were anesthetized by intraperitoneal administration of 0.35 g/kg of chloral hydrate. To induce MRSA pneumonia, the trachea of rats were exposed, to which 100 μL PBS containing 2×10^6 CFU/mL MRSA in PBS was slowly injected. The rats were retained upright for 1 min, and the cut was sealed. The MRSA infection was allowed to develop for 24 h.
The hydantoin compound 22 or vancomycin were used as antibiotics in the study. In brief, a dose of 10 mg/kg of the drug was injected to the tested rats intravenously. On the day of 3 and 5, rats were sacrificed, and lung sections were stained with hematoxylin and eosin (H&E), and their morphology was investigated under a light microscope at 100× magnification. The existence (indicated by the infiltration of neutrophils) and the extent of possible inflammatory response (indicated by the integrity of the alveolar structure and endothelium cilium) were recorded from at least five randomly picked sections by an experienced physician.

[2] = tested on: P. aeruginosa (ATCC 27853); assay: Minimum inhibitory concentration (MIC) assay, P. aeruginosa; format: cell-based, Pseudomonas aeruginosa; conditions: Gram negative, ATCC 27853, 16 h incubation; for MIC: Pseudomonas aeruginosa, ATCC27853, read-out: MIC (μg/mL) P.A.
Method: (§1) Minimum inhibitory concentrations (MICs) assay.^2
(§2) All compounds were tested against six different bacteria strains: methicillin-resistant S. aureus (MRSA, ATCC 33591), E. coli (ATCC 25922), methicillin-resistant S. epidermidis (MRSE, RP62A), K. pneumoniae (ATCC 13383), vancomycin-resistant Enterococcus faecalis (VREF, ATCC 700802), P. aeruginosa (ATCC 27853). One colony of each bacteria was inoculated in 4 mL TSB buffer at 37° C. overnight, which was then diluted 100 times, and the bacteria were allowed to grow to the mid-logarithmic phase. 50 μL hydantoin compounds in 2-fold serial dilution of TSB were added in the 96-well plate, then 50 μL diluted bacterial in TSB medium (1×10^6 CFU/mL) was added to each well. After 16 h of incubation at 37° C., the absorption at 600 nm wavelength on a Biotek Synergy HT microtiter plate reader was recorded. Minimum inhibitory concentrations were determined as the lowest concentrations that inhibited bacteria growth completely.

[3] = tested on: methicillin-resistant S. aureus (MRSA, ATCC 33591); assay: Minimum inhibitory concentration (MIC) assay, MRSA; format: cell-based, Staphylococcus aureus; conditions: for MIC: Staphylococcus aureus
Method: as §1, §2

[4] = tested on: red blood cells (RBCs) of mice; assay: Hemolytic assay; format: cell-based
Method: Fresh red blood cells (RBCs) of mice were washed with 1×PBS buffer and centrifuged 10 min at 3500 rpm for 3 times until the supernatant was clear, then RBCs were diluted into 5% v/v suspension in 1×PBS. 50 μL compounds in PBS were 2-fold serially diluted in a 96-well plate, and incubated with 50 μL RBCs suspension for 1 h at 37° C. The mixture was then centrifuged for 10 min at 3500 rpm. Subsequently, 30 μL of the supernatant was added to 100 μL PBS, then the absorbance of mixture was read on a Biotek Synergy HT plate reader at 540 nm. The hemolytic activity was calculated by the formula % hemolysis=(Abssample−AbsPBS)/(AbsTriton−AbsPBS)×100%. 1% Triton X-100 were used as the positive control and 1×PBS buffer was used as the negative control.

[5] = tested on: vancomycin-resistant Enterococcus faecalis (VREF, ATCC 700802); assay: Minimum inhibitory concentration (MIC) assay, VREF; format: cell-based; conditions: 16 h incubation; for MIC: Enterococcus faecalis, ATCC700802, Gram positive, read-out: MIC (μg/mL) VREF; for MIC (μg/mL) VREF: Gram positive
Method: as §1, §2

[6] = tested on: K. pneumoniae (ATCC 13383); assay: Minimum inhibitory concentration (MIC) assay, K. pneumoniae; format: cell-based, Klebsiella pneumoniae; conditions: 16 h incubation; for MIC: Klebsiella pneumoniae, ATCC13383, Gram negative, read-out: MIC (μg/mL) K.P.; for MIC (μg/mL) K.P.: Gram negative
Method: as §1, §2

[7] = tested on: methicillin-resistant S. epidermidis (MRSE, RP62A); assay: Minimum inhibitory concentration (MIC) assay, MRSE; format: cell-based, Staphylococcus epidermidis; conditions: Gram positive, 16 h incubation; for MIC: Staphylococcus epidermidis, MRSE, read-out: MIC (μg/mL) MRSE
Method: as §1, §2

[8] = tested on: E. coli (ATCC 25922); assay: Minimum inhibitory concentration (MIC) assay, E. coli; format: cell-based, Escherichia coli; conditions: 16 h incubation; for MIC: Escherichia coli, ATCC25922, Gram negative, read-out: MIC (μg/mL) E. coli; for MIC (μg/mL) E. coli: Gram negative
Method: as §1, §2

[9] = tested on: panel of Gram-positive and Gram-negative bacteria; assay: Antimicrobial activity against the whole panel of bacteria; format: cell-based; conditions: for antimicrobial activity across the tested bacterial strains: all tested strains; for antibacterial activity of compounds with HPLC RT values less than 26 min: statement relating activity to retention time
Method: as §1, §2

[10] = hemolytic activity, mouse RBCs, 1 h at 37° C.
[11] = Gram positive, ATCC 33591, 16 h incubation
[12] = Gram positive, ATCC 33591, 16 h incubation, read-out: MIC (μg/mL) MRSA

Compound	lung inflammation (H&E staining), day not given [1]	MIC [2] [µg/mL]	MIC ([3]; Table 2, read-out: MIC of MRSA) [µg/mL]	HC50 [4, 10] [µg/mL]	MIC [5] [µg/mL]	MIC [6] [µg/mL]	MIC [7] [µg/mL]	MIC [8] [µg/mL]	MIC (μg/mL) P.A. [2] [µg/mL]	MIC (μg/mL) MRSA [3, 11] [µg/mL]	MIC of MRSA ([3]; Table 2) [µg/mL]	HC50 [4] [µg/mL]	MIC (μg/mL) VREF [5] [µg/mL]	MIC (μg/mL) K.P. [6] [µg/mL]	MIC (μg/mL) MRSE [7] [µg/mL]	MIC (μg/mL) E. coli [8] [µg/mL]	antimicrobial activity across the tested bacterial strains [9]	MIC [3, 12] [µg/mL]	antibacterial activity of compounds with HPLC RT values less than 26 min [9]
CN[C@H](CC(C)C)C(=O)N[C@H]1C(=O)N[C@@H](CC(N)=O)C(=O)N[C@H]2C(=O)N[C@H]3C(=O)N[C@H](C(=O)N[C@H](C(=O)O)c4cc(O)cc(O)c4-c4cc3ccc4O)[C@H](O)c3ccc(c(Cl)c3)Oc3cc2cc(c3O[C@@H]2O[C@H](CO)[C@@H](O)[C@H](O)[C@H]2O[C@H]2C[C@](C)(N)[C@H](O)[C@H](C)O2)Oc2ccc(cc2Cl)[C@H]1O [vancomycin, reference compound]	alleviated condition																		
CCCCCCCCCC(=O)N[C@@H](CCCCN)CN1CC(=O)N(c2cccc(Cl)c2)C1=O [Compound 21, (S)—N-(6-amino-1-(3-(3-chlorophenyl)-2,4-dioxoimidazolidin-1-yl)hexan-2-yl)decanamide]		6.25	6.25	100	12.5	6.25	6.25	6.25											
CCCCCCCCCC(=O)N[C@@H](CCCCN)CN1CC(=O)N(C23CC4CC(CC(C4)C2)C3)C1=O [Compound 13, N—((S)-1-(3-((3R,5R,7R)-adamantan-1-yl)-2,4-dioxoimidazolidin-1-yl)-6-aminohexan-2-yl) decanamide]									12.5	6.25	6.25	125	12.5	6.25	6.25	6.25	exhibits decent activity across the panel of bacteria		
CCCCCCCCCCCCCC(=O)N[C@@H](CCCCN)CN1CC(=O)N(CC)C1=O [Compound 3, (S)—N-(6-amino-1-(3-ethyl-2,4-dioxoimidazolidin-1-yl)hexan-2-yl)tetradecanamide]		12.5		90	6.25	6.25	6.25	3.12	12.5								comparable activity to nitrofurantoin against most strains	6.25	
CCCCCCCCCCCC(=O)N[C@@H](CCCCN)CN1CC(=O)N(CCCC)C1=O [Compound 6, (S)—N-(6-amino-1-(3-butyl-2,4-dioxoimidazolidin-1-yl)hexan-2-yl)dodecanamide]		25		80	25	12.5	25	6.25										12.5	no apparent antibacterial activity
CCCCCCCCCC(=O)N[C@@H](CCCCN)CN1CC(=O)N(C2CCCCC2)C1=O [Compound 9, (S)—N-(6-amino-1-(3-cyclohexyl-2,4-dioxoimidazolidin-1-yl)hexan-2-yl)decanamide]		> 50			> 50	25	> 50	12.5									starts to show activity toward a few bacterial strains	25	no apparent antibacterial activity
CCCCCCCCCCCC(=O)N[C@@H](CCCCN)CN1CC(=O)N(c2ccc(OC)cc2)C1=O [Compound 18, (S)—N-(6-amino-1-(3-(4-methoxyphenyl)-2,4-dioxoimidazolidin-1-yl)hexan-2-yl)dodecan amide]									12.5	25	25	200	25	12.5	25	12.5			no apparent antibacterial activity
CCCCCCCCCCCC(=O)N[C@@H](CCCCN)CN1CC(=O)N(C2CCCCC2)C1=O [Compound 10, (S)—N-(6-amino-1-(3-cyclohexyl-2,4-dioxoimidazolidin-1-yl)hexan-2-yl)dodecanamide]		12.5		100	12.5	6.25	6.25	6.25										6.25	
